Laboratory results reported in patent US9320741B2, “Compositions and methods for treating neoplasia, inflammatory disease and other disorders” (Dana-Farber Cancer Institute, Inc., priority 2010, dated 2016).
Like-named read-outs stand apart in the source and are kept apart here.

Key:
TT and TE10 = experiment: Cell proliferation assay, non-NMC squamous carcinoma lines; type: cell-based, human; details: TT and TE10, 250 nM, 72 hours
Description: Data is presented as mean±s.d. (n=3). IC50 values were calculated by logistic regression.

BRD3-NUT cells = experiment: BRD3-NUT xenograft study; type: in vivo, mice; details: 50 mg/kg IP 7 days/week
Description: Mice were implanted subcutaneously with BRD3-NUT cells. Tumor measurement data were collected weekly. […] On day 24 post-injection, five mice from each group were euthanized and tumor samples were collected to be sent for lab analysis. Throughout the remainder of the study tumor samples were collected as mice were sacrificed. For all samples one half of the tumor was fixed in 10% formalin and the other half was flash frozen on dry ice. Treatment ended on day 32. Tumor volume and weights were collected weekly until all mice either became moribund or tumors reached 2 cm in any dimension. […] Upon cessation of therapy, tumor growth resumed. Tumor volume differences were significant at all points (p=7.65274E-09 at Day 24).

GFP-BRD4 = GFP-BRD4 (Homo sapiens (Human), UniProt O60885)
NMC 797 and Per403 cells = experiment: Differentiation and proliferation immunohistochemistry, NMC cells; type: cell-based, human
Description: Direct inhibition of gene products expressed from recurrent, oncogenic translocations is a validated therapeutic approach in cancer^28,29. The phenotypic consequences of chemical inhibition of BET-family bromodomains on the BRD4-dependent NUT midline carcinoma was explored. BRD4-NUT chromatin localization is mechanistically linked to the preserved tandem bromodomains of BRD4 in the fusion protein^17. A characteristic feature of NMC is the appearance of discrete nuclear speckles of the BRD4-NUT oncoprotein by NUT-directed immunohistochemistry (IHC)^30.
A striking differentiation phenotype is observed with knock-down of BRD4-NUT in NMC cell lines^17. […] Differentiation was prompt (<24 hours) and characterized by markedly augmented expression of cytokeratin, a hallmark of squamous differentiation (FIG. 3h).

TE10 and TT = experiment: Differentiation immunohistochemistry, non-BRD4-dependent squamous carcinoma lines; type: cell-based, human
[1] = test system: BRD4-dependent human carcinoma cells; experiment: Annexin-V/propidium iodide flow cytometry, BRD4-dependent carcinoma cells; type: cell-based; details: 500 nM, 24 or 48 hours
Description: Thus, early and late apoptosis was assessed with annexin-V and propidium iodide staining by flow cytometry.
Trypsinized cells were mixed 1:1 on ice with Annexin-V/propidium iodide buffer (10 mM HEPES pH 7.4, 140 mM NaCl, 2.5 mM CaCl2) containing Annexin V-FITC (BD Pharmingen, 1:500) and propidium iodide (Invitrogen, 1:1000). Samples were immediately analyzed on a BD FACS Canto II. Visualizations and analyses of apoptotic fractions were generated using FlowJo flow cytometry analysis software (Tree Star, Inc.).

GFP-BRD4-NUT = GFP-BRD4-NUT (Homo sapiens (Human), UniProt O60885+Q86Y26); details: 500 nM, compared to vehicle control
Description: (§2) FRAP studies were performed on U2OS cells as previously described^3,20. In brief, U2OS cells were transfected (lipofectamine; Invitrogen) with mammalian overexpression constructs encoding GFP chimera with BRD4, NUT and BRD4-NUT. A 5 μm^2 nuclear region was bleached with high laser intensity in one cell within each field, and measured for recovery with low laser intensity and a 150 μm pinhole. Images of identical fields were acquired using a Nikon Cl Plus confocal microscope equipped with a 37° C. heated chamber and FRAP modules over 90 seconds. Average intensities of the bleached region were measured over time and using MetaMorph v7, and normalized to an independent region of interest before bleaching.

GFP-NUT = GFP-NUT (Homo sapiens (Human), UniProt Q86Y26); experiment: FRAP in U2OS cells, GFP-NUT; details: 500 nM
Description: as §2

NMC 797 xenografts = experiment: NMC 797 xenograft efficacy study
Description: Prior to randomization and after four days of therapy, mice were evaluated by PET imaging.
To capture comparative mechanistic and pharmacodynamic data, all animals were sacrificed and tumors were explanted for histopathologic analysis.
Animals were followed daily for clinical symptoms. Tumor measurements were assessed by caliper measurements, and volume calculated using the formula Vol=0.5×L×W^2. After 2 weeks of treatment, all mice were humanely euthanized, and tumors were fixed in 10% formalin for histopathological examination. Statistical significance of tumor volumes was calculated by two-sided Students t-test. All animal studies were approved by the IACUC of the DFCI.

[2] = Pharmacokinetic studies in CD1 mice; details: for AUC: CD1, mouse, plasma
cellular receptors = experiment: Off-target effects on cellular receptors
BRD4(1) = BRD4(1) (Homo sapiens (Human), UniProt O60885); experiment: Alpha-assay acetyl-histone binding, BRD4 site 1; details: 12-point dose response curve; for IC50: read-out: Bio-assay IC50 BRD4(1)
Description: The binding activity of lead compounds with the BRD4 site 1 was determined by Alpha-assay with a 12-point dose response curve (FIG. 56A).
(§1) Assays were performed as described previously^8 with minor modifications from the manufacturer's protocol (PerkinElmer, USA). All reagents were diluted in 50 mM HEPES, 100 mM NaCl, 0.1% BSA, pH 7.4 supplemented with 0.05% CHAPS and allowed to equilibrate to room temperature prior to addition to plates. […] Plates were sealed and incubated for a further 30 minutes, before the addition of 4 μl of streptavidin-coated donor beads (25 μg/ml) and 4 μl nickel chelate acceptor beads (25 μg/ml) under low light conditions. Plates were foil-sealed to protect from light, incubated at room temperature for 60 minutes and read on a PHERAstar FS plate reader (BMG Labtech, Germany) using an AlphaScreen 680 excitation/570 emission filter set. IC50 values were calculated in Prism 5 (GraphPad Software, USA) after normalization against corresponding DMSO controls and are given as the final concentration of compound in the 20 μl reaction volume.

BRD4(2) = BRD4(2) (Homo sapiens (Human), UniProt O60885); experiment: Alpha-assay acetyl-histone binding, BRD4 site 2; details: 12-point dose response curve; for IC50: read-out: Bio-assay IC50 BRD4(2)
NMC 11060 xenografts = experiment: Patient-derived NMC 11060 primary xenograft study; type: in vivo, mice; details: 50 mg kg^−1 daily for four days
Description: In parallel with these studies, a patient with widely metastatic BRD4-NUT positive NMC arising from the mediastinum was identified. With the goal of developing a more clinically-relevant disease model, short-term cultures were established using discarded clinical material obtained from pleural fluid draining from a palliative chest tube in the patient.

[3] = test system: Keratin-14, Keratin-10, epidermal transglutaminase (TGM1); experiment: RT-PCR expression analysis of squamous tissue genes in NMC 797 cells; type: cell-based, human
NMC 797 cells = experiment: Flow cytometry for DNA content, NMC 797; type: cell-based, human; details: 250 nM, 48 h
Description: Data is presented as mean±s.d. (n=3). IC50 values were calculated by logistic regression. […] Data points are mean±s.d. (n=3). […] PI, propidium iodide. […] A significant response to therapy is observed by two-tailed t-test at 14 days (p=0.039). Data represent the mean±s.d. (n=7). […] Expanded fields are provided in Supplementary FIGS. 11, 12. […] Quantitative analysis of keratin induction was performed using image masking (FIG. 5J, right panel) and pixel positivity analysis (FIG. 5K). A significant response to therapy is observed by two-tailed t-test (p=0.0001). Data represent the mean±s.d. of three independent wide microscopic fields.

NMC 11060 cells = experiment: Flow cytometry for DNA content, NMC 11060; type: cell-based, human; details: 250 nM, 48 h
Description: Data is presented as mean±s.d. (n=3). IC50 values were calculated by logistic regression. […] Data points are mean±s.d. (n=3).

797 cells = experiment: Cell proliferation assay, 797 cell line; type: cell-based; details: Homo sapiens, read-out: Cell-assay IC50 797 cells
Description: Curve fit was calculated by logistical regression.
Cells were seeded into white, 384-well microtiter plates (Nunc) at 500 cells per well in a total volume of 50 μL media. […] Compounds were delivered to microtiter assay plates by robotic pin transfer (PerkinElmer JANUS equipped with a V&P Scientific 100 nL pin tool). Following a 48 h incubation at 37° C., cells were lysed and wells were assessed for total ATP content using a commercial proliferation assay (Cell TiterGlo; Promega). Replicate measurements were analyzed with respect to dose and estimates of IC50 were calculated by logistic regression (GraphPad Prism).

[4] = Unspecified biological assay
CBP = CBP (Homo sapiens (Human), UniProt Q92793); experiment: AlphaScreen profiling against CBP; type: binding
Description: as §1

BET family members = experiment: AlphaScreen profiling against other BET family members; type: binding, human

Chain of GFP-NUT (Q86Y26 whole entry, looked up): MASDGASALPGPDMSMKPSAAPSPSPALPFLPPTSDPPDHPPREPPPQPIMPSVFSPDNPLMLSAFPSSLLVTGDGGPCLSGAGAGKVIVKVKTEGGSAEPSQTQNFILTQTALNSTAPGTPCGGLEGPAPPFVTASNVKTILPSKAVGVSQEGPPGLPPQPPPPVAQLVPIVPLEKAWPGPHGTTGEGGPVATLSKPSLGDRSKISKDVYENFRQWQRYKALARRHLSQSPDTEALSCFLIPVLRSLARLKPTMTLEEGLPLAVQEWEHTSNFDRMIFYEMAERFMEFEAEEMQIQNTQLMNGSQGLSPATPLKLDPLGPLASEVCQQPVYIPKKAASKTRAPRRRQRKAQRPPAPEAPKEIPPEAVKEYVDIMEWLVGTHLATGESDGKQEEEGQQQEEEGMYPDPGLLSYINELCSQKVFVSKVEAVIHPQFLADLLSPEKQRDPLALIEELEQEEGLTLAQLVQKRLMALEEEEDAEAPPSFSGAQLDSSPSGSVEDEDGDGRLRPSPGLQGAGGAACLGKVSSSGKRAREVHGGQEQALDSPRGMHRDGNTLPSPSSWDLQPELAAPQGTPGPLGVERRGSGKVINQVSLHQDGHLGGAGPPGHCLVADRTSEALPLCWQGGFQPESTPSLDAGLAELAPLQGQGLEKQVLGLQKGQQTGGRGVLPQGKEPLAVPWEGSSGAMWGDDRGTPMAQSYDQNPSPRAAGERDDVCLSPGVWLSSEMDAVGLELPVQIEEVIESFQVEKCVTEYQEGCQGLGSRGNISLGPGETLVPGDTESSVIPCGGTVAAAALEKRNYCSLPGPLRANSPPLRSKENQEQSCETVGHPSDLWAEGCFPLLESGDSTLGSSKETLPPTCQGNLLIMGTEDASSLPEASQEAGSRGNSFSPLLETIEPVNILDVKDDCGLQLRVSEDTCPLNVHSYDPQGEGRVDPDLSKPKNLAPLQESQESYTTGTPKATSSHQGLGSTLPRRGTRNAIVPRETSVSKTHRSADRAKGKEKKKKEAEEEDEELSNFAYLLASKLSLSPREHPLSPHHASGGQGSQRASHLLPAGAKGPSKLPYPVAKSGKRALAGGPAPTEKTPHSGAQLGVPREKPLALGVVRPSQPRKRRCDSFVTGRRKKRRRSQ
Chain of CBP (Q92793 whole entry): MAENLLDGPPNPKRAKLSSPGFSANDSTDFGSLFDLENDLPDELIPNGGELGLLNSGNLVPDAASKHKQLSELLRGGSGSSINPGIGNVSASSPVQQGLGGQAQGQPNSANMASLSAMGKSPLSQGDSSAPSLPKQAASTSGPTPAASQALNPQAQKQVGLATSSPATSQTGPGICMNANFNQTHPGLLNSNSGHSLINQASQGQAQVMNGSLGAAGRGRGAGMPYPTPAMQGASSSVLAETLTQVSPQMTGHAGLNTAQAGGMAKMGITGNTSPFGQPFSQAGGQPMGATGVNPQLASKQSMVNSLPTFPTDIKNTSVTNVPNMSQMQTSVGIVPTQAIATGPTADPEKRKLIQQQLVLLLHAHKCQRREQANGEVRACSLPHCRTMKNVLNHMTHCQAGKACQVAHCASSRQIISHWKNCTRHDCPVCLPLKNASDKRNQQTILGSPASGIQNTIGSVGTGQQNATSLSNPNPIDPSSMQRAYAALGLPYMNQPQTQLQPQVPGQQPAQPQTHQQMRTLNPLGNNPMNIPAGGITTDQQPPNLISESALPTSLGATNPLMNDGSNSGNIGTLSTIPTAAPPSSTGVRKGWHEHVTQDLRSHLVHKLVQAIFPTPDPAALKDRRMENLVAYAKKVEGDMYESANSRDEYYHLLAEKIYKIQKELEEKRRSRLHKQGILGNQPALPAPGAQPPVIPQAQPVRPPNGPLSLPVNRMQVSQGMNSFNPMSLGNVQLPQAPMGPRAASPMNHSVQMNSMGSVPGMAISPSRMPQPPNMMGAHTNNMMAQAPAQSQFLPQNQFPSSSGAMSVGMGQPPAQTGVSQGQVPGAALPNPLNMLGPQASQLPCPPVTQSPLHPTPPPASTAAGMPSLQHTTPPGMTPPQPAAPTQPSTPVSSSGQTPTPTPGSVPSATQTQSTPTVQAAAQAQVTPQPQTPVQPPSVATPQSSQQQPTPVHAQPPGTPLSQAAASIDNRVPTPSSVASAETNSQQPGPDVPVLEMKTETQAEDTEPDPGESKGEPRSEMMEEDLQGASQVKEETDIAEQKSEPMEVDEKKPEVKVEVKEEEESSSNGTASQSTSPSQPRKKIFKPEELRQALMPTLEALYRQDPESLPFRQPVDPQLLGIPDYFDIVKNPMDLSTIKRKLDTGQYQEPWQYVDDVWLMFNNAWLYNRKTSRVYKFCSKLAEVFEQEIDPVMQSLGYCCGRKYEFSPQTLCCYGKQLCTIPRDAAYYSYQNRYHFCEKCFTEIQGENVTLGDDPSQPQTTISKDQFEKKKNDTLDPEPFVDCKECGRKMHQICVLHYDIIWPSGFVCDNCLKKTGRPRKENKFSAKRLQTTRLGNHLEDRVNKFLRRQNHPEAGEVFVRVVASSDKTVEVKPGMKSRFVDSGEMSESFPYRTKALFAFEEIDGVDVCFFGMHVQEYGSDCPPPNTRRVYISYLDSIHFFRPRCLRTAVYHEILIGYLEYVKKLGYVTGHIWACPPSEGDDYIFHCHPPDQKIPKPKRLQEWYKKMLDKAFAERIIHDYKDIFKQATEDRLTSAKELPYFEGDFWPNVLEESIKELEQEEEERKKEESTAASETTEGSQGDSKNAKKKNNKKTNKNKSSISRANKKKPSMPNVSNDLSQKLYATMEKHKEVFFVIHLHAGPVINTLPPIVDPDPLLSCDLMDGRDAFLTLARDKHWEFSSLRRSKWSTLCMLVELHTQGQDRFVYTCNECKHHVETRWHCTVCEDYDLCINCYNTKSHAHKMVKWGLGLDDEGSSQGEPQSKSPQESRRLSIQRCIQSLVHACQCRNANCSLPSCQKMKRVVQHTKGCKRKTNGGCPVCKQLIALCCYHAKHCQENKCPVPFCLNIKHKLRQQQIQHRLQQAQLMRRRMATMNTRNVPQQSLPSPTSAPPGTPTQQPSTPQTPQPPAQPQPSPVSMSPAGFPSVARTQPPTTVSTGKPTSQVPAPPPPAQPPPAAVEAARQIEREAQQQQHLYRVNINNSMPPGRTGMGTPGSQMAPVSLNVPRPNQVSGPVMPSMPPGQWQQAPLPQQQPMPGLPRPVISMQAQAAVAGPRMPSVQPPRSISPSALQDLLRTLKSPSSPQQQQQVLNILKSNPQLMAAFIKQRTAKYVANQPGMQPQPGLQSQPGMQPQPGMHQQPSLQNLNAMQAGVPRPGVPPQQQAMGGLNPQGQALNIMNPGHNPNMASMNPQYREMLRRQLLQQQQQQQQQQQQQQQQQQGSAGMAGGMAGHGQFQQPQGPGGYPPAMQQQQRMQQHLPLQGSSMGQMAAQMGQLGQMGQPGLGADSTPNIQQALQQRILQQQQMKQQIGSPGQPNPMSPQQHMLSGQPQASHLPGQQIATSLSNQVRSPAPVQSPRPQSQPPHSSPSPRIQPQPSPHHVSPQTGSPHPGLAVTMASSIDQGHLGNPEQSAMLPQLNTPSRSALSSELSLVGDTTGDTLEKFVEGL

tert-Butyl 2-(4-(4-chlorophenyl)-2,3,9-trimethyl-6H-thieno[3,2-f][1,2,4]triazolo[4,3-a][1,4]diazepin-6-yl)acetate [JQ1]
effect on cell proliferation (TT and TE10): Minimal effects observed on cell proliferation | body weight (BRD3-NUT cells): mild weight loss with rapid recovery after cessation of therapy | tumor volume (BRD3-NUT cells): tumor regression while on therapy | fluorescence recovery of GFP-BRD4 (GFP-BRD4; U2OS cells, 500 nM): observed recovery is immediate | nuclear NUT foci by IHC (NMC 797 and Per403 cells; 797 NMC cell line, 500 nM, 48 hours): effaced nuclear foci | time to differentiation (NMC 797 and Per403 cells; NMC 797 and Per403 cells): < 24 h | differentiation effects (TE10 and TT): fail to exhibit differentiation effects | apoptosis (annexin-V and propidium iodide staining) [1]: induced immediate and progressive apoptosis | time-to-recovery of fluorescence intensity, GFP-BRD4-NUT (GFP-BRD4-NUT): markedly accelerated time-to-recovery of fluorescence intensity | redistribution of GFP-NUT (GFP-NUT): no effect was observed | tumor growth (tumor volume by caliper) (NMC 797 xenografts; 50 mg kg^−1 daily intraperitoneal, 14 days): statistically-significant reduction in tumor growth | FDG uptake by PET imaging (NMC 797 xenografts; 50 mg kg^−1 daily intraperitoneal, four days): marked response on FDG uptake | tumor keratin expression, quantitative IHC (NMC 797 xenografts; 50 mg kg^−1 daily, excised tumors): strong (3+) keratin expression | NUT nuclear speckles in sectioned tumor tissue (NMC 797 xenografts; 50 mg kg^−1 daily, excised tumors, IHC): effacement of NUT nuclear speckles | oral bioavailability (F) ([2]; CD1 mice, oral 10 mg kg^−1): 49% | off-target effects on cellular receptors (cellular receptors): few off-target effects on cellular receptors

Cc1sc2c(c1C)C(c1ccc(Cl)cc1)=NC(CC(=O)NCCCN1CCN(C)CC1)c1nnc(C)n1-2 (centres unmarked) [JQ35]
binding activity with the BRD4 site 1 (BRD4(1)): excellent binding activity | binding activity with the BRD4 site 2 (BRD4(2)): excellent binding activity

Cc1sc2c(c1C)C(c1ccc(Cl)cc1)=NC(CC(=O)NCCN1CCOCC1)c1nnc(C)n1-2 (centres unmarked) [JQ33]
binding activity with the BRD4 site 1 (BRD4(1)): excellent binding activity | IC50 (BRD4(1)): 85 nM | binding activity with the BRD4 site 2 (BRD4(2)): excellent binding activity | IC50 (BRD4(2)): 29.5 nM

Cc1sc2c(c1C)C(c1ccc(Cl)cc1)=N[C@@H](CC(=O)OC(C)(C)C)c1nnc(C)n1-2 (single isomer, unassigned) [(+)-JQ1]
FDG uptake by PET imaging (NMC 11060 xenografts): marked response on FDG uptake | tumor keratin expression, quantitative IHC (NMC 11060 xenografts): induction of keratin expression | fluorescence recovery of GFP-BRD4 (GFP-BRD4; 250 nM, 5 h, compared to vehicle control): enhanced recovery | differentiation and growth arrest phenotypes (NMC 797 and Per403 cells; BRD4-dependent NMC cells): differentiation and growth arrest phenotypes are prompted | effect on epidermal transglutaminase (TGM1) [3]: absent effect | induction of Keratin-10 [3]: modest induction | cell cycle (DNA content) (NMC 797 cells): induced a G1 arrest | cell cycle (DNA content) (NMC 11060 cells): induces a G1 arrest | AUC ([2]; iv, 5 mg/kg): 2090 ng·h/mL | AUC ([2]; po, 10 mg/kg): 2090 ng·h/mL | half-life (T1/2) ([2]; CD1 mice, intravenous 5 mg kg^−1): approximately one

Cc1sc2c(c1C)C(c1ccc(Cl)cc1)=N[C@@H](CC(=O)NCCN1CCN(C)CC1)c1nnc(C)n1-2 [JQ13]
binding activity with the BRD4 site 1 (BRD4(1)): excellent binding activity | IC50 (BRD4(1)): 2.49 nM | binding activity with the BRD4 site 2 (BRD4(2)): excellent binding activity | IC50 (BRD4(2)): 0.584 nM | IC50 (797 cells; proliferation after 72 hours): 10900 nM

Cc1sc2c(c1C)C(c1ccc(Cl)cc1)=NC(CC(=O)NN)c1nnc(C)n1-2 (centres unmarked) [hydrazide (3)]
activity in at least one biological assay [4]: showed activity

Cc1sc2c(c1C)C(c1ccc(Cl)cc1)=N[C@@H](CC(=O)OC(C)(C)C)c1nnc(C)n1-2 [JQ1S]
binding and inhibition of CBP (CBP): inactive | binding and inhibition of BET family members (BET family members): active

Cc1sc2c(c1C)C(c1ccc(Cl)cc1)=N[C@@H](CC(=O)NCCc1cnc[nH]1)c1nnc(C)n1-2 [JQ8]
binding activity with the BRD4 site 1 (BRD4(1)): excellent binding activity | binding activity with the BRD4 site 2 (BRD4(2)): excellent binding activity

Cc1sc2c(c1C)C(c1ccc(Cl)cc1)=N[C@H](CC(=O)OC(C)(C)C)c1nnc(C)n1-2 [(R)-JQ1]
IC50 (797 cells; 72 h): 1540 nM

Cc1sc2c(c1C)C(c1ccc(Cl)cc1)=NC(CC(=O)NN=Cc1ccc(O)cc1)c1nnc(C)n1-2 (centres unmarked) [hydrazone (4)]
activity in at least one biological assay [4]: showed activity

Cc1sc2c(c1C)C(c1ccc(Cl)cc1)=N[C@@H](CC(=O)N/N=C/c1ncc[nH]1)c1nnc(C)n1-2 [JQ6]
binding activity with the BRD4 site 1 (BRD4(1)): excellent binding activity | binding activity with the BRD4 site 2 (BRD4(2)): excellent binding activity
